Literature values, collected in patent US11407830B2, “Methods of treating cancer with anti-PD-1 antibodies” (TESARO, INC., priority 2017, dated 2022).

Tests used:
[1] = tested on: PARP activity in various cell lines
[2] = tested on: non-small-cell lung cancer, melanoma, and renal-cell cancer; settings: Phase I clinical trial

Row | Molecule | IC50 ([1]; read-out: IC50, PARP activity in cells, hydrogen peroxide DNA damage) [nM] | IC90 ([1]; read-out: inhibitory concentration at 90% of control (IC90), PARP activity in cells, hydrogen peroxide DNA damage) [nM] | tumor response [2]
1 | NC(=O)c1cccc2cn(-c3ccc([C@@H]4CCCNC4)cc3)nc12 [Niraparib, (3 S)-3-[4-{7-(aminocarbonyl)-2H-indazol-2-yl}phenyl]piperidine] | ~4 | ~50 | –
2 | nivolumab: monoclonal antibody targeting PD-1 | – | – | complete or partial responses
